Laboratory results taken from US20110086834A1, “ALKYNYL ALCOHOLS AS KINASE INHIBITORS” (AMGEN INC., priority 2008, published 2011).

Each compound was assayed against T1, NIK (Homo sapiens, UniProt Q99558) (assay: homogenous time resolved fluorescence (HTRF) assay for NIK Ki measurement). Conditions: truncated NIK (catalytic domain only), autophosphorylation; 10 nM enzyme; 20, 100, 200 or 500 μM ATP; room temperature, 2 hours; read-out: Ki activity in the homogenous time resolved fluorescence (HTRF) assay for NIK.
T1 construct: Both assays utilize a truncated form of NIK containing only the catalytic domain; made in house; host or cells: baculovirus expression system (insect cells implied)
T1 sequence (Q99558 400-655 limits assumed): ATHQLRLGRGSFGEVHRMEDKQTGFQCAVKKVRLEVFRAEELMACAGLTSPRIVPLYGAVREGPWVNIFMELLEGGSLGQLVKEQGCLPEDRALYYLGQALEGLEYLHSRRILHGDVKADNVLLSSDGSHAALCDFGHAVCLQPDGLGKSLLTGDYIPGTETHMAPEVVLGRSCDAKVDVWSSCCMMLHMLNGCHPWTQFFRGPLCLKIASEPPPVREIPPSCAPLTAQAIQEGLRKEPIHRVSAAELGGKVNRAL
Assay type: biochemical
`CN1CCC2(C1)CN(c1nc(N)ncc1Cl)c1cc(C#C[C@](C)(O)c3nccs3)ccc12` (single isomer, unassigned) [Example 194, (2S)-4-((3R*)-1-(2-Amino-5-chloro-4-pyrimidinyl)-1′-methyl-1,2-dihydrospiro[indole-3,3′-pyrrolidin]-6-yl)-2-(1,3-thiazol-2-yl)-3-butyn-2-ol] showed a Ki of 1000 to 30000 nM.
`Cc1cc(C(C)(O)C#Cc2ccc3c(c2)N(c2nc(N)ncc2Cl)CC32CCOC2)no1` (single isomer, unassigned) [Example 204, 4-((3S*)-1′-(2-Amino-5-chloro-4-pyrimidinyl)-1′,2′,4,5-tetrahydrospiro[furan-3,3′-indol]-6′-yl)-2-(5-methyl-3-isoxazolyl)-3-butyn-2-ol] showed a Ki of less than 1000 nM.
For `Nc1nccc(C2=CC3(CCOCC3)c3ccc(C#CC4(O)CCCC4)cc32)n1` [Example 220, 1-((3-(2-Amino-4-pyrimidinyl)-2′,3′,5′,6′-tetrahydrospiro[indene-1,4′-pyran]-5-yl)ethynyl)cyclopentanol], the Ki was less than 1000 nM.
`COCCNC(=O)c1c(-c2ccncn2)c2cc(C#CC(C)(O)c3nccs3)ccc2n1C` (stereo not drawn) [Example 90, 5-(3-hydroxy-3-(thiazol-2-yl)but-1-ynyl)-N-(2-methoxyethyl)-1-methyl-3-(pyrimidin-4-yl)-1H-indole-2-carboxamide] showed a Ki of less than 1000 nM.
For `Cc1cc([C@](C)(O)C#Cc2ccc3c(c2)N(c2nc(N)ncc2Cl)CC3)on1` (single isomer, unassigned) [Example 29], the Ki was less than 1000 nM.
`CC(O)(C#Cc1ccc2c(c1)N(c1nc(N)ncc1Cl)CC21CCCOC1)c1nccs1` (stereo not drawn) [Example 248, 4-(1-(2-Amino-5-chloro-4-pyrimidinyl)-1,2,5′,6′-tetrahydro-4′H-spiro[indole-3,3′-pyran]-6-yl)-2-(1,3-thiazol-2-yl)-3-butyn-2-ol] showed a Ki of less than 1000 nM.
`CC(O)(C#Cc1ccc2c(c1)N(c1ccnc(N)n1)CC2)C1CCC1` (stereo not drawn) [Example 21, 4-(1-(2-aminopyrimidin-4-yl)indolin-6-yl)-2-cyclobutylbut-3-yn-2-ol] was tested, and the Ki was less than 1000 nM.
`COCCOc1cnc(N)nc1-c1c[nH]c2ccc(C#CC(C)(O)C(F)(F)F)cc12` (stereo not drawn) [Example 261, 4-(3-(2-Amino-5-((2-(methyloxy)ethyl)oxy)-4-pyrimidinyl)-1H-indol-5-yl)-1,1,1-trifluoro-2-methyl-3-butyn-2-ol] showed a Ki of 1000 to 30000 nM.
In the case of `CC(O)(C#Cc1ccc2c(c1)N(c1ccncc1)CC2(C)C)c1ccccn1` (stereo not drawn) [Example 310, 4-(3,3-Dimethyl-1-(4-pyridinyl)-2,3-dihydro-1H-indol-6-yl)-2-(2-pyridinyl)-3-butyn-2-ol], the Ki is reported as less than 1000 nM.
In the case of `Cc1ccc(C#CC(C)(O)c2nccs2)cc1Nc1ccncc1` (stereo not drawn) [Example 172, 4-(4-Methyl-3-(pyridin-4-ylamino)phenyl)-2-(thiazol-2-yl)but-3-yn-2-ol], the Ki is reported as 1000 to 30000 nM.
In the case of `OC1(C#Cc2ccc3[nH]c4c(c3c2)-c2ncncc2CCC4)CCCC1` [Example 241, 1-(5,6,7,8-Tetrahydropyrimido[4′,′:3,4]cyclohepta[1,2-b]indol-11-ylethynyl)cyclopentanol], the Ki is reported as less than 1000 nM.
`CN1CCC2(C1)CN(c1nc(N)nc3[nH]cnc13)c1cc(C#CC3(O)CCCC3)ccc12` (stereo not drawn) [Example 191, 1-((1-(2-Amino-9H-purin-6-yl)-1′-methyl-1,2-dihydrospiro[indole-3,3′-pyrrolidin]-6-yl)ethynyl)cyclopentanol] gave a Ki of less than 1000 nM.
Compound `Cc1cc(C(C)(O)C#Cc2ccc(F)c(Nc3nc(N)ncc3Cl)c2)no1` (stereo not drawn) [Example 167, 4-(3-(2-Amino-5-chloropyrimidin-4-ylamino)-4-fluorophenyl)-2-(5-methylisoxazol-3-yl)but-3-yn-2-ol] has a Ki of less than 1000 nM.
In the case of `COCCOCCn1cc(-c2nc(N)ncc2F)c2cc(C#CC3(O)CCCC3)ccc21` [Example 133, 1-(2-(3-(2-amino-5-fluoropyrimidin-4-yl)-1-(2-(2-methoxyethoxy)ethyl)-1H-indol-5-yl)ethynyl)cyclopentanol], the Ki is reported as less than 1000 nM.
Compound `Nc1ncc(Cl)c(N2CC3(CCOCC3)c3ccc(C#CC4(O)CCCC4)cc32)n1` [Example 205, 1-((1-(2-Amino-5-chloro-4-pyrimidinyl)-1,2,2′,3′,5′,6′-hexahydrospiro[indole-3,4′-pyran]-6-yl)ethynyl)cyclopentanol] has a Ki of less than 1000 nM.
`Cn1cnc([C@H](O)C#Cc2ccc3c(c2)N(c2nc(N)ncc2Cl)CC3(C)C)c1` (single isomer, unassigned) [Example 47, (1R*)-3-(1-(2-amino-5-chloro-4-pyrimidinyl)-3,3-dimethyl-2,3-dihydro-1H-indol-6-yl)-1-(1-methyl-1H-imidazol-4-yl)-2-propyn-1-ol] was tested, and the Ki was less than 1000 nM.
`Cc1cc(C(C)(O)C#Cc2ccc3c(c2)N(c2nc(N)ncc2Cl)CC3)no1` (racemic) [Example 23, 4-(1-(2-amino-5-chloropyrimidin-4-yl)indolin-6-yl)-2-(5-methylisoxazol-3-yl)but-3-yn-2-ol] showed a Ki of less than 1000 nM.
With `CC(O)(C#Cc1cccc(Nc2ccncn2)n1)c1nccs1` (stereo not drawn) [Example 173, 4-(6-(pyrimidin-4-ylamino)pyridin-2-yl)-2-(thiazol-2-yl)but-3-yn-2-ol] the Ki was less than 1000 nM.
For `CC(C)(C)C(C)(O)C#Cc1ccc2c(c1)N(c1ccnc(N)n1)CC2` (stereo not drawn) [Example 268, 1-(1-(2-Amino-4-pyrimidinyl)-2,3-dihydro-1H-indol-6-yl)-3,4,4-trimethyl-1-pentyn-3-ol], the Ki was 1000 to 30000 nM.
`CC(C)(C)NC(=O)c1ccc(-c2[nH]c3ccc(C#CC4(O)CCCC4)cc3c2-c2ccnc(N)n2)cc1` [Example 93, 4-(3-(2-aminopyrimidin-4-yl)-5-(2-(1-hydroxycyclopentyl)ethynyl)-1H-indol-2-yl)-N-tert-butylbenzamide] showed a Ki of less than 1000 nM.
In the case of `CC(C)C(=O)n1cc(-c2nc(N)ncc2Cl)c2cc(C#CC3(O)CCCC3)ccc21` [Example 119, 1-(3-(2-amino-5-chloropyrimidin-4-yl)-5-(2-(1-hydroxycyclopentyl)ethynyl)-1H-indol-1-yl)-2-methylpropan-1-one], the Ki is reported as less than 1000 nM.
Work on `Nc1ncc(Cl)c(N2CCc3ccc(C#CC4(O)CCCC4)cc32)n1` [Example 16, 1-(2-(1-(2-amino-5-chloropyrimidin-4-yl)indolin-6-yl)ethynyl)cyclopentanol] yielded a Ki of less than 1000 nM.
`CC1(CO)CN(c2nc(N)ncc2Cl)c2cc(C#CC3(O)CCCC3)ccc21` (stereo not drawn) [Example 54, 1-((1-(2-amino-5-chloro-4-pyrimidinyl)-3-(hydroxymethyl)-3-methyl-2,3-dihydro-1H-indol-6-yl)ethynyl)cyclopentanol] showed a Ki of less than 1000 nM.
`COc1ccc(C#CC(C)(O)c2cc(C)no2)cc1Nc1nc(N)ncc1Cl` (stereo not drawn) [Example 144, 4-(3-((2-amino-5-chloro-4-pyrimidinyl)amino)-4-(methyloxy)phenyl)-2-(3-methyl-5-isoxazolyl)-3-butyn-2-ol] was tested, and the Ki was less than 1000 nM.
In the case of `Nc1ncc(Cl)c(N2CC(CO)(CO)c3ccc(C#CC4(O)CCCC4)cc32)n1` [Example 62, 1-((1-(2-amino-5-chloro-4-pyrimidinyl)-3,3-bis(hydroxymethyl)-2,3-dihydro-1H-indol-6-yl)ethynyl)cyclopentanol], the Ki is reported as less than 1000 nM.
In the case of `CN1CCC2(C1)CN(c1nc(N)ncc1F)c1cc(C#CC3(O)CCCC3)ccc12` (racemic) [Example 190, (rac)-1-((1-(2-Amino-5-fluoro-4-pyrimidinyl)-1′-methyl-1,2-dihydrospiro[indole-3,3′-pyrrolidin]-6-yl)ethynyl)cyclopentanol], the Ki is reported as less than 1000 nM.
With `CC(O)(C#Cc1cccc(Oc2nc(N)ncc2Cl)c1)c1nccs1` (stereo not drawn) [Example 315, 4-(3-((2-amino-5-chloro-4-pyrimidinyl)oxy)phenyl)-2-(1,3-thiazol-2-yl)-3-butyn-2-ol] the Ki was less than 1000 nM.
`CN(c1cc(C#CC(C)(O)c2nccs2)ccc1OC1CCOCC1)c1nc(N)ncc1Cl` (stereo not drawn) [Example 165, 4-(3-((2-amino-5-chloropyrimidin-4-yl)(methyl)amino)-4-(tetrahydro-2H-pyran-4-yloxy)phenyl)-2-(thiazol-2-yl)but-3-yn-2-ol] was tested, and the Ki was less than 1000 nM.
`COc1cnc(N)nc1-c1c[nH]c2ccc(C#CC3(O)CCCC3)cc12` [Example 227, 1-((3-(2-Amino-5-methoxy-4-pyrimidinyl)-1H-indol-5-yl)ethynyl)cyclopentanol] showed a Ki of less than 1000 nM.
`Nc1ncc2c(n1)-c1c(nc3ccc(C#CC4(O)CCCC4)cn13)CCC2` [Example 249, 1-((2-amino-6,7-dihydro-5H-pyrido[1″,2″:1′,2′]imidazo[4′,′:6,7]cyclohepta[1,2-d]pyrimidin-11-yl)ethynyl)cyclopentanol] gave a Ki of less than 1000 nM.
Work on `Cc1cc([C@](C)(O)C#Cc2ccc3c(c2)N(c2nc(N)ncc2Cl)CC32CCOCC2)no1` (single isomer, unassigned) [Example 211] yielded a Ki of less than 1000 nM.
`COc1ccc(C#C[C@@](C)(O)c2nccs2)cc1Nc1nc(N)ncc1Cl` [Example 146, (R)-4-(3-(2-Amino-5-chloropyrimidin-4-ylamino)-4-methoxyphenyl)-2-(thiazol-2-yl)but-3-yn-2-ol] was tested, and the Ki was less than 1000 nM.
Compound `CC1(C)CN(c2nc(N)ncc2Cl)c2cc(C#C[C@@](C)(O)c3nccs3)ccc21` (single isomer, unassigned) [Example 40] has a Ki of less than 1000 nM.
Work on `CC(O)(C#Cc1ccc2c(c1)N(c1nc(N)ncc1Cl)CC2(C)CO)c1nccs1` (single isomer, unassigned) [Example 53, 4-((3 S*)-1-(2-amino-5-chloro-4-pyrimidinyl)-3-(hydroxymethyl)-3-methyl-2,3-dihydro-1H-indol-6-yl)-2-(1,3-thiazol-2-yl)-3-butyn-2-ol] yielded a Ki of less than 1000 nM.
With `CC(C)(C#Cc1ccc2c(c1)N(c1nc(N)ncc1Cl)CC2(C)CO)C(=O)OCc1ccccc1` (single isomer, unassigned) [Example 57, benzyl 4-((3S*)-1-(2-amino-5-chloro-4-pyrimidinyl)-3-(hydroxymethyl)-3-methyl-2,3-dihydro-1H-indol-6-yl)-2,2-dimethyl-3-butynoate] the Ki was less than 1000 nM.
`CCN(CC)CCNC(=O)c1ccc(Nc2nccc(N3CCc4ccc(C#CC5(O)CCCC5)cc43)n2)cc1` [Example 262, N-(2-(diethylamino)ethyl)-4-((4-(6-((1-hydroxycyclopentyl)ethynyl)-2,3-dihydro-1H-indol-1-yl)-2-pyrimidinyl)amino)benzamide] gave a Ki of less than 1000 nM.
